The source of these data is patent US12570607B2, “Compound as cyclin-dependent kinase 9 inhibitor and use thereof” (CSPC Zhongqi Pharmaceutical Technology (Shijiazhuang) Co., …, priority 2019, dated 2026).

Experiment [1] relates to human acute promyelocytic leukemia HL-60 cell subcutaneous xenograft tumor. The experiment can be described thus: In vivo antitumor activity in HL-60 cell subcutaneous xenograft tumor model. On the set-up: species or system Nu/Nu mice. The following applies: HL-60 xenograft, qd, p.o., 5 mg/Kg, 9 days. The procedure: Cell culture: IMDM culture medium containing 20% fetal bovine serum (FBS), 37° C., 5% CO2; Nu/Nu mice, female, 6-8 weeks (18-22 g), each mouse was subcutaneously inoculated with 0.1 mL of HL-60 cell suspension (containing about 1×10^7 cells) in the axillary region of the right forelimb. When the average tumor volume reached 150 mm^3, drug administration was started. The tumor volume was measured 2-3 times per week, and the volume was calculated in cubic millimeters. When the average tumor volume in the vehicle group reached more than 800 mm^3, the administration was terminated to compare the difference in the average tumor volume between the compound group and the vehicle group. The antitumor efficacy of the compounds was evaluated by TGI (%). TGI (%) reflected the tumor growth inhibition rate.

The subject of experiment [2] is human acute myelocytic leukemia MV4;11 cell subcutaneous xenograft tumor. The experiment can be described thus: In vivo antitumor activity in MV4;11 cell subcutaneous xenograft tumor model. On the set-up: species or system NOD-SCID mice. Conditions: MV4;11 xenograft, p.o. The protocol:
Cell culture: IMDM culture medium containing 10% fetal bovine serum (FBS), 37° C., 5% CO2.
NOD-SCID mice, female, 6-8 weeks(18-22 g), each mouse was subcutaneously inoculated with 0.1 mL (1×10^8) MV4;11 cells on the right back of each mouse. When the average tumor volume reached 150 mm^3, drug administration was started. The tumor volume was measured twice a week, and the volume was calculated in cubic millimeters. When the average tumor volume in the vehicle group reached more than 800 mm^3, the administration was terminated to compare the difference in the average tumor volume between the compound groups and the vehicle group. The antitumor efficacy of the compounds was evaluated by TGI (%). TGI (%) reflected the tumor growth inhibition rate.

Experiment [3] has as its system MV4;11 cells. The experiment can be described thus: In vitro MV4;11 cell proliferation inhibition (MTT method). Type of experiment: cell-based. The following applies: Homo sapiens. From the text: The in vitro inhibitory effect of the synthesized compounds on cell proliferation was investigated.
The trade name of MTT was thiazole blue, which was a tetrazolium salt of a dye that could accept hydrogen atoms. […] Dimethyl sulfoxide could dissolve blue-purple complexes in cells, and its light absorption value could be measured at 490-550 nm wavelength with an enzyme-linked immunosorbent detector, which could indirectly reflect the number of cells. Within a certain range of the cell number, the amount of MTT crystals formed was proportional to the number of cells. The drug to be tested was successively diluted to different concentrations and added to a 96-well plate. The OD value was determined after the drug acted for a certain time. The size of the OD value could reflect the number of living cells, and its IC50 value was calculated with SPSS19.0.
Suspension of cells: Cells were […] by centrifugation and counted. A certain density of cell suspension was formulated with a complete culture medium, blown evenly, inoculated on a 96-well plate, 100 μL per well, and then cultured in a CO2 incubator.
An appropriate amount of the drug was added to a calculated amount of DMSO and dissolved. The resulting mixture was dispensed and stored at −20° C. The formulation concentration was 10 mM.
The stock solution of the compound having a concentration of 10 mM was diluted into different concentrations (8 concentrations) of solutions of the compound in DMSO (3-fold dilution, 20×final concentration). Each concentration of solutions (10 μL) of the compound in DMSO was respectively diluted with cell culture media (90 μL) to formulate working solutions (2×final concentration). Each concentration of working solutions (100 μL) of the compound was added to the 96-well plate inoculated with cells (1×final concentration, the highest final concentration is 1000 nM). The resulting plate continued to be cultured in a CO2 incubator.
The 96-well plate was taken out, and the density of cells was observed under a microscope. The test was performed with the MTT method.
MTT method: 20 μL of MTT was added to each well; the plate was cultured for about 4 hours in the incubator; the liquid in the well was discarded; 150 μL of DMSO was added into each well; the plate was placed in a shaker and shaken for 5-10 minutes, and the test was performed with a microplate reader at a wavelength of 550 nm. 7. Data analysis: IC50 value of the drug was calculated with SPSS19.0 statistical software.
Background: Tetrazolium dyes change colour on reduction, which living cells bring about.

Experiment [4] deals with hERG channel (Homo sapiens (Human), UniProt Q12809). The experiment can be described thus: In vitro hERG inhibitory activity, whole-cell patch-clamp on CHO-K1 cell line stably expressing the hERG channel. The text has this: Rapid delayed rectifier current (IKr) was mainly mediated by the hERG ion channel and involved in human cardiomyocyte repolarization. Inhibition of IKr was the leading cause of the clinical QT interval prolongation syndrome, even acute cardiac dysrhythmia, and even sudden death. By utilizing a whole-cell patch-clamp technology, the blocking effect of a compound on the hERG channel was detected on a CHO-K1 cell line stably expressing the hERG channel, and the half inhibition concentration IC50 of the compound was determined. It was used as a part of the comprehensive cardiac safety assessment, and it was initially evaluated in the safety in vitro screen for cardiotoxicity.
Sequence of hERG channel (Q12809 whole entry): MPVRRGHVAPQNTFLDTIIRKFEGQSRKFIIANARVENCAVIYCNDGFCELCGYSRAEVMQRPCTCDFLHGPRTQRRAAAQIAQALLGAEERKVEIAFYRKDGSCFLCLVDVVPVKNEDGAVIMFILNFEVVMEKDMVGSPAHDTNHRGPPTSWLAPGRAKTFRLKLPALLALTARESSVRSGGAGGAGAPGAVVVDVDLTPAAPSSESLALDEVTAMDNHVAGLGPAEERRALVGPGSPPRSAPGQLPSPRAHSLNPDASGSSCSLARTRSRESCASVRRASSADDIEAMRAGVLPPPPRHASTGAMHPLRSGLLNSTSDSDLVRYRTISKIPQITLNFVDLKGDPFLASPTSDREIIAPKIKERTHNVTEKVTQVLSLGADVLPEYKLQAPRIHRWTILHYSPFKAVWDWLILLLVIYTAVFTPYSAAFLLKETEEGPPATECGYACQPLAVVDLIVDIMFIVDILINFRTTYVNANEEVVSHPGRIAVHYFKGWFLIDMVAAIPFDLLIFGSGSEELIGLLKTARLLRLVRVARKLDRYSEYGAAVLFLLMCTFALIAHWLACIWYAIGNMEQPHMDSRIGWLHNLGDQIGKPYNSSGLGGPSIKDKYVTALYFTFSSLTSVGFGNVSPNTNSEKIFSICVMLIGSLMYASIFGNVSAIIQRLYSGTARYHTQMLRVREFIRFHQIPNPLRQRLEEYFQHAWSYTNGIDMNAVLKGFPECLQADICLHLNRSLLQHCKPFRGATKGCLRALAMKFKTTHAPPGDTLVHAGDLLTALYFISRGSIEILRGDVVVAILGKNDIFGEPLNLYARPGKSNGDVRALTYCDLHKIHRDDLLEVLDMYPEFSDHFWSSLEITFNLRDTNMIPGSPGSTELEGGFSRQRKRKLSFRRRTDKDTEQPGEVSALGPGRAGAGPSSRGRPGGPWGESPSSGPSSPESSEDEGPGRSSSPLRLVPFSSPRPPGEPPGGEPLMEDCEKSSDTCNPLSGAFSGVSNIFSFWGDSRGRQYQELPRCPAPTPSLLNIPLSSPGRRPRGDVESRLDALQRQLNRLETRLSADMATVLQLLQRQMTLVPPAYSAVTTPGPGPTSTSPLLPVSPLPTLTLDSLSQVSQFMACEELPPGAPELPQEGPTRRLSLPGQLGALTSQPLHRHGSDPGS
This assay included the following aspects: • The hERG current was recorded on the CHO-K1 cell line stably expressing the hERG channel by utilizing the manual patch-clamp technology; • The inhibition rate at each concentration was calculated according to the hERG tail current; • The measurement was performed at 5 concentrations for each compound to calculate the IC50 value; • 3 cells were tested at each concentration; • One positive control drug was provided.
The hERG current was recorded by utilizing a whole-cell patch-clamp technology. The cell suspension was added to a dish, and the dish was placed on the object stage of an upright microscope. After adhesion of the cells, perfusion was performed with an extracellular fluid at a flow rate of […]. A glass microelectrode was pulled with a microelectrode puller via a two-step process and the pipette rip resistance was between 2-5 MΩ. After the whole-cell record was set up, the clamp potential was held at −80 mV. The cells were depolarized to +60 mV by applying a voltage stimulus and then repolarized to −50 mV to elicit the hERG tail current. All recordation was conducted after the current became stable. The extracellular perfusion administration was started from the lowest concentration, staying for 5-10 min at each concentration until the current was stable, and then conducted with the next concentration.
A general note: hERG is a cardiac potassium channel; its block is linked to QT prolongation.

SMILES strings stand for the structures. A value given as a limit tells only on which side of the number the result lay.

Consider `COc1cc(F)c(F)cc1-c1cc(NC(=O)[C@H]2CCC[C@@H](NC(=O)CO)C2)ncc1F` [Compound 68], for which the “TGI(%)” value in experiment [1] was 90.2%; in experiment [2] (qd, 5 mg/Kg, 7 days) it was 78.1%. Also, the IC50 (in general, the concentration needed to halve the response being measured) in experiment [3] is 50 nM; in experiment [4] it was greater than 30000 nM.
Take `COc1cc(F)c(F)cc1-c1cc(NC(=O)[C@H]2CCC[C@@H](NC(=O)C3(C#N)CC3)C2)ncc1F` [Compound 67]: the “TGI(%)” value in experiment [1] is given as 67.8%; in experiment [2] (qd, 5 mg/Kg, 9 days) it was 67.8%. Besides, in experiment [3], the IC50 was 67 nM.
Consider `COc1cc(F)ccc1-c1cc(NC(=O)[C@H]2CCC[C@@H](NC(=O)CO)C2)ncc1F` [Compound 45], for which the “TGI(%)” value in experiment [1] was found to be 58.0%; in experiment [2] (qd, 5 mg/Kg, 16 days), 62.9%. The results for the IC50 in experiment [3] and in experiment [4] were 34 nM and greater than 30000 nM, respectively.
In the case of `COc1cc(F)ccc1-c1cc(NC(=O)[C@H]2CCC[C@@H](NC(C)=O)C2)ncc1F` [Compound 5], the “TGI(%)” value in experiment [2] (q2d, 20 mg/Kg, 9 days) amounted to 98.5%. In addition, the 50% inhibitory concentration (IC50) in experiment [3] is 37 nM; in experiment [4], greater than 30000 nM.
Turning to `COc1cc(F)ccc1-c1cc(NC(=O)[C@H]2CCC[C@@H](NC(=O)C3(C#N)CC3)C2)ncc1F` [Compound 33], the “TGI(%)” value in experiment [2] (qd, 5 mg/Kg, 9 days) is reported as 56.9%. Besides, the IC50 in experiment [3] is 17 nM; in experiment [4] it was greater than 30000 nM.
Consider `COc1ccccc1-c1cc(NC(=O)[C@H]2CCC[C@@H](NC(C)=O)C2)ncc1F` [Compound 17], for which the results for the IC50 in experiment [3] and in experiment [4] were 25 nM and greater than 30000 nM, respectively.
For `CC(=O)N[C@@H]1CCC[C@H](C(=O)Nc2cc(-c3cccc4ccoc34)c(F)cn2)C1` [Compound 19] the same measures were 26 nM and greater than 30000 nM.
For `COc1cc(F)ccc1-c1cc(NC(=O)[C@H]2CCC[C@@H](NS(C)(=O)=O)C2)ncc1F` [Compound 25], the IC50 was 34 nM in experiment [3] and greater than 30000 nM in experiment [4].
`COc1cc(F)ccc1-c1ccnc(NC(=O)[C@H]2CCC[C@@H](NC(C)=O)C2)c1`: in experiment [2] (q2d, 20 mg/Kg, 9 days), the “TGI(%)” value was determined as 51.5%.
